Measurements as given in patent publication US20240148821A1, “PHARMACEUTICAL USE OF CYCLIC PEPTIDE COMPOUND” (CHUGAI SEIYAKU KABUSHIKI KAISHA, priority 2021, published 2024).
Numbered stars: 1 amine (or outer) side, 2 acyl side, 3 side chain; on linkers, the order of the positions; unused ones are H or OH. Bridge positions count the residues as written; N and C are the ends. Square brackets hold non-standard residues; d marks the D form. Peptide text beside a SMILES is read from it. * marks the point of attachment. hPhe(3,5-F2-4-CF3) = N[C@@H](CCc1cc(F)c(C(F)(F)F)c(F)c1)C(=O)O; hPhe(3-Cl-4-CF3) = N[C@@H](CCc1ccc(C(F)(F)F)c(Cl)c1)C(=O)O; NEtPhe(4-CF3) = CCN[C@@H](Cc1ccc(C(F)(F)F)cc1)C(=O)O; hPhe(4-CF3) = N[C@@H](CCc1ccc(C(F)(F)F)cc1)C(=O)O; X37 = CC(C)(C)NC(=O)COC[C@H](CC(=O)[*:1])N[*:2]; NMePhe(4-Cl) = CN[C@@H](Cc1ccc(Cl)cc1)C(=O)O; NMePhe(4-Me) = CN[C@@H](Cc1ccc(C)cc1)C(=O)O; NMedβ3hAla = C[C@H](CC(=O)[*:2])N(C)[*:1]; NMeGly(cPent) = CN[C@H](C(=O)O)C1CCCC1; Phe(3-I) = N[C@@H](Cc1cccc(I)c1)C(=O)O; Pro(4,4-F2) = O=C(O)[C@@H]1CC(F)(F)CN1; NMeCha = CN[C@@H](CC1CCCCC1)C(=O)O; NMeGly(cPr) = CN[C@H](C(=O)O)C1CC1; X4 = C#CC[C@H](CC(=O)[*:2])N[*:1]; NMeChg = CN[C@H](C(=O)O)C1CCCCC1; NMeE = CN[C@@H](CCC(=O)O)C(=O)O; NMeD = CN[C@@H](CC(=O)O)C(=O)O; NMeL = CN[C@@H](CC(C)C)C(=O)O; NMeV = CN[C@H](C(=O)O)C(C)C; d(β3hA) = C[C@@H](N)CC(=O)O; NMeS = CN[C@@H](CO)C(=O)O; Morpholide = C1CN(*)CCO1; NMeA = CN[C@@H](C)C(=O)O; NMeAib = CNC(C)(C)C(=O)O; Piperidide = C1CCN(*)CC1; Pyrrolidide = C1CCN(*)C1; Ac5c = NC1(C(=O)O)CCCC1; Aze = O=C(O)[C@@H]1CCN1; Ac4c = NC1(C(=O)O)CCC1; X80 = FC1(F)CCCN(*)C1; Aib = CC(C)(N)C(=O)O; Isopentyl = CC(C)CC*; Sar = CNCC(=O)O; Propyl = CCC*

target: protein-protein interaction between Kras and SOS1 (biotin-tagged human Kras loaded with GDP, His-tagged human SOS1) (Homo sapiens (Human), UniProt P01116, G12D); test: Protein-protein interaction inhibition between Kras and SOS1 (KrasG12D-SOS PPI) using AlphaScreen; assay type: biochemical; conditions: not given;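 further: kras produced in E. coli, Ni-coupled donor beads and streptavidin acceptor beads, excitation 680 nm with emission detected at 520–620 nm via singlet oxygen transfer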

**Q.** `CC[C@H](C)[C@@H]1NC(=O)[C@H](CC(C)C)N(C)C(=O)C[C@@H](C(=O)N2CCCC(F)(F)C2)N(C)C(=O)[C@H](CC(C)C)NC(=O)C(C)(C)N(C)C(=O)[C@H](Cc2ccc(OC)cc2)NC(=O)[C@H](Cc2cccc(I)c2)NC(=O)CN(C)C(=O)[C@H](Cc2ccc(C)cc2)N(C)C(=O)CN(C)C(=O)CN(C)C1=O` [Compound 2099, (3S,9S,12S,18S,27S,30S,34S)-34-(3,3-difluoropiperidine-1-carbonyl)-12-[(3-iodophenyl)methyl]-3,30-diisobutyl-9-[(4-methoxyphenyl)methyl]-1,6,6,7,16,19,22,25,31-nonamethyl-27-[(1S)-1-methylpropyl]-18-(p-tolylmethyl) 1,4,7,10,13,16,19,22,25,28,31-undecazacyclotetratriacontane-2,5,8,11,14,17,20,23,26,29,32-undecone] ([NMeL]I[Sar][Sar][NMePhe(4-Me)][Sar][Phe(3-I)]Y(Me)[NMeAib]L[NMeD]-X80; lactam N-11) was tested. Which IC50 did it give?
**A.** The IC50 was 25 nM.

same assay, conditions: AlphaScreen; biotin-tagged human Kras loaded with GDP, His-tagged human SOS1; read-out: KRAS G12D-SOS PPI IC50

**Q.** Which IC50 does the source give for `C#CC[C@@H]1CC(=O)N(C)[C@@H](C(C)C)C(=O)N[C@@H]([C@@H](C)CC)C(=O)N(C)CC(=O)N(C)CC(=O)N(C)[C@@H](Cc2ccc(Cl)cc2)C(=O)N(C)CC(=O)N[C@@H](CCc2ccc(C(F)(F)F)cc2)C(=O)N(C)[C@@H](CC(C)C)C(=O)NC2(CCCC2)C(=O)N(C)[C@@H](CC(C)C)C(=O)N1` [Compound 669] (cyclo([Ac5c][NMeL][X4][NMeV]I[Sar][Sar][NMePhe(4-Cl)][Sar][hPhe(4-CF3)][NMeL])) here?
**A.** Its IC50 is 220 nM.

**Q.** With `CC[C@H](C)[C@@H]1NC(=O)[C@H](CC(C)C)N(C)C(=O)C[C@@H](COCC(=O)NC(C)(C)C)NC(=O)[C@H](CC(C)C)N(C)C(=O)C(C)(C)NC(=O)[C@H](CC(C)C)N(C)C(=O)[C@H](CCc2ccc(C(F)(F)F)cc2)NC(=O)CN(C)C(=O)[C@H](COCCC(C)C)N(C)C(=O)CN(C)C(=O)CN(C)C1=O` [Compound 1538] ([NMeL]I[Sar][Sar][NMeS](Isopentyl)[Sar][hPhe(4-CF3)][NMeL][Aib][NMeL]; linker N-C via X37) as the compound, how does the IC50 read?
**A.** Its IC50 is 110 nM.

**Q.** With `CC[C@H](C)[C@@H]1NC(=O)[C@H](CC(C)C)N(C)C(=O)C[C@@H](C(=O)N2CCOCC2)N(C)C(=O)[C@H](C2CCCC2)N(C)C(=O)C2(CCCC2)NC(=O)[C@H](CCC(=O)N2CCOCC2)N(C)C(=O)[C@H](CCc2ccc(C(F)(F)F)c(Cl)c2)NC(=O)CN(C)C(=O)[C@H](CC2CCCCC2)N(C)C(=O)[C@@H]2CCN2C(=O)[C@H](C)N(C)C1=O` [Compound 2107] ([NMeL]I[NMeA][Aze][NMeCha][Sar][hPhe(3-Cl-4-CF3)][NMeE](Morpholide)[Ac5c][NMeGly(cPent)][NMeD]-Morpholide; lactam N-11) as the compound, how does the IC50 read?
**A.** Its IC50 is 4.8 nM.

**Q.** For `CCCOC[C@H]1C(=O)N(C)CC(=O)N[C@@H](CCc2ccc(C(F)(F)F)c(Cl)c2)C(=O)N2CCC[C@H]2C(=O)NC2(CCCC2)C(=O)N(C)[C@@H](C(C)C)C(=O)N(C)[C@H](C(=O)N2CCCCC2)CC(=O)N(C)[C@@H](CC(C)C)C(=O)N[C@@H]([C@@H](C)CC)C(=O)N(C)[C@@H](C)C(=O)N2CC[C@H]2C(=O)N1C` [Compound 1646] ([NMeL]I[NMeA][Aze][NMeS](Propyl)[Sar][hPhe(3-Cl-4-CF3)]P[Ac5c][NMeV][NMeD]-Piperidide; lactam N-11), which IC50 is on record?
**A.** The IC50 was 4.6 nM.

**Q.** For `CC[C@H](C)[C@@H]1NC(=O)[C@H](CC(C)C)N(C)C(=O)C[C@@H](C)N(C)C(=O)[C@H](C2CCCCC2)N(C)C(=O)C2(CCC2)NC(=O)[C@@H]2CC(F)(F)CN2C(=O)[C@H](CCc2cc(F)c(C(F)(F)F)c(F)c2)NC(=O)CN(C)C(=O)[C@H](Cc2ccc(C(F)(F)F)cc2)N(CC)C(=O)[C@@H]2CCN2C(=O)[C@H](C)N(C)C1=O` [Compound 377] (cyclo([Ac4c][NMeChg][NMedβ3hAla][NMeL]I[NMeA][Aze][NEtPhe(4-CF3)][Sar][hPhe(3,5-F2-4-CF3)][Pro(4,4-F2)])), which IC50 is on record?
**A.** Its IC50 is 24 nM.

**Q.** For `CC[C@H](C)[C@@H]1NC(=O)[C@H](CC(C)C)N(C)C(=O)C[C@@H](C(=O)N2CCCC2)N(C)C(=O)[C@H](C2CCCC2)N(C)C(=O)C2(CCCC2)NC(=O)[C@@H]2CCCN2C(=O)[C@H](CCc2ccc(C(F)(F)F)c(Cl)c2)NC(=O)CN(C)C(=O)[C@H](CC2CCCCC2)N(C)C(=O)[C@@H]2CCN2C(=O)[C@H](C)N(C)C1=O` [Compound 1679] ([NMeL]I[NMeA][Aze][NMeCha][Sar][hPhe(3-Cl-4-CF3)]P[Ac5c][NMeGly(cPent)][NMeD]-Pyrrolidide; lactam N-11), which IC50 is on record?
**A.** Its IC50 is 0.85 nM.

**Q.** Which IC50 does the source give for `CC[C@H](C)[C@@H]1NC(=O)[C@H](CC(C)C)N(C)C(=O)C[C@@H](C)NC(=O)[C@H](C(C)C)N(C)C(=O)C2(CCCC2)NC(=O)[C@@H]2CCCN2C(=O)[C@H](CCc2ccc(C(F)(F)F)c(Cl)c2)NC(=O)CN(C)C(=O)[C@H](CC2CCCCC2)N(C)C(=O)[C@@H]2CCN2C(=O)[C@H](C2CC2)N(C)C1=O` [Compound 1586] (cyclo([Ac5c][NMeV][d(β3hA)][NMeL]I[NMeGly(cPr)][Aze][NMeCha][Sar][hPhe(3-Cl-4-CF3)]P)) here?
**A.** Its IC50 is 59 nM.
